The results in this text go back to US12331264B2, “Lipid nanoparticles for delivery of nucleic acids and methods of use thereof” (Akagera Medicines, Inc., priority 2020, dated 2025).

A short description of data set [1]: Accelerated oxidation of ICLs with H2O2/Fe(III)Cl, UHPLC-CAD. Format: physicochemical. As to conditions: for % of parent lipid peak at time 0, 24 h / % of parent lipid peak at time 0, 48 h / % of parent lipid peak at time 0, 72 h: Table 14, ICL lipid suspensions, 1% H2O2/100 μM Fe(III)Cl, 37° C.; for degradation: after 48 hours of incubation with hydrogen peroxide. The protocol: Individual lipid stocks (10 mM) were prepared in ethanol and stored at −20° C. […] Liposomal formulations based on AKG-UO-1 and O-11769 ionizable cationic lipids (Table 12) were prepared by combining lipid mixtures of desired composition in 1 mL ethanol with 3 mL 6.25 mM sodium acetate, pH 5.0 at 6 mL/min on a NanoAssemblr (Precision Nanosystems). 3.6 mL of the mixture was retained, while the initial 0.35 mL of the mixture and final 0.05 mL were discarded. Ethanol was removed by buffer exchange into PBS, pH 7.4 by concentrating each liposome preparation using an Aminon-Ultra 4 centrifugal concentrator at 500 g for 10 min at 4° C. and diluting back to the original volume with PBS. This cycle was repeated multiple times until the ethanol concentration was <1%. Finally, liposomes were sterile filtered through 0.2 μm PES (Nalgene) syringe filters and size measured by a ZetaSizer (Malvern).
Aliquots of the liposomal formulations were stored at −80° C. and thawed before the experiment. A combined stock in water of 10% H2O2 (Sigma-Aldrich, cat #H1009) and 1 mM of Fe(III)Cl (Sigma-Aldrich, cat #372870) was freshly prepared prior to the treatment. To make 1% final concentration of H2O2 and 100 μM Fe(III)Cl, 10 μl of 10% H2O2/1 mM Fe(III)Cl stock was added to 90 μl of both liposomal formulations and individual lipids The liposomes and individual lipids were incubated with H2O2/Fe(III)Cl at 37° C. and then 5 μl from each sample was taken at different time points (0, 3, 24, 48 and 72 hours) and dissolved in 90 μl of MeOH for HPLC analysis. Degradation of the main lipid peak was analyzed using Thermo Scientific Vanquish Flex UHPLC occupied with Charged Aerosol Detector (CAD) and Thermo Scientific Accucore™ C18+ UHPLC column (L=50 mm, D=2.1 mm, Particle Size=1.5 μm).
The data are presented as a percentage of the main lipid peak measured at different time points relative to the lipid peak measured at time zero.

A short description of data set [2]: Apparent pKa of ionizable lipid in LNP by TNS fluorescence. As to conditions: pH 3, probe TNS (2-(p-toluidino)-6-naphthalene sulfonic acid).
Experimental: (§1) Using 1 M sodium hydroxide and 1 M hydrochloric acid, ˜20 unique buffers from the master buffer stock are prepared at different pH values between about 3 and 12. 300 mM 6-(p-Toluidino)-2-naphthalenesulfonic acid sodium salt (TNS reagent) solubilized in dimethyl sulfoxide (DMSO) is used as a stock. LNP are prepared and purified into the desired pH buffer with a final mRNA concentration of 0.04 mg/mL. Using a 96-well plate, preloaded with desired buffers, mRNA containing LNP are added to so that the final concentration of mRNA is 0.7 μg/mL. To each well, TNS is added so that the DMSO concentration is 1% (v/v). After mixing, the fluorescence of TNS in each well is measured (Ex/Em 331 nm/445 nm) and a sigmoidal best fit analysis is applied to the fluorescence data. The pKa is determined as the pH giving rise to half-maximal fluorescence intensity.
The next data set in a line: physchem. The note with it: pH 3.

SMILES strings stand for the structures.

Experimental for physchem: as §1

Consider `CCCCC/C=C\CCCC/C=C\CCCCC(=O)OC[C@H](CCN(C)C)OC(=O)CCCC/C=C\CCCC/C=C\CCCCC` [UO-1], for which, in data set [1], the “% of parent lipid peak at time 0, 24 h” value was determined as 78 ± 0.6%; the “% of parent lipid peak at time 0, 48 h” value was 74 ± 0.1%; the “% of parent lipid peak at time 0, 72 h” value is 65 ± 2.5%.

Take `CCCCC/C=C\CCCC/C=C\CCCCCC1(CCCCC/C=C\CCCC/C=C\CCCCC)OC[C@H](CCCN(C)C)O1` [KC3-01, 3-((S)-2,2-di((6Z,12Z)-octadeca-6,12-dien-1-yl)-1,3-dioxolan-4-yl)-N,N-dimethylpropan-1-amine]: in data set [1], the “% of parent lipid peak at time 0, 24 h” value is 83 ± 4.3%; the “% of parent lipid peak at time 0, 48 h” value is reported as 80 ± 0.4%; the “% of parent lipid peak at time 0, 72 h” value was 74 ± 2.2%.

Turning to `CCC/C=C\CCCC/C=C\CCCCC(=O)OC[C@H](CCCN(C)C)OC(=O)CCCC/C=C\CCCC/C=C\CCC` [Compound 25], the pKa in data set [2] was 6 to 7.

As for `CCC/C=C\CCCC/C=C\CCCCC(=O)OC[C@H](CCN(C)C)OC(=O)CCCC/C=C\CCCC/C=C\CCC` [Compound 23], the pKa in data set [2] fell in the range of 6 to 7.

On to `CCCCCC/C=C\CCSSCCCCC1(CCCCSSCC/C=C\CCCCCC)OCC(CCN(C)C)O1` (stereo not drawn) [Compound 30], for which the pKa in data set [2] was 6 to 7.

For the compound `CCC/C=C\CCCC/C=C\CCCCCC1(CCCCC/C=C\CCCC/C=C\CCC)OCC(CCCN(C)C)O1` (stereo not drawn) [Compound 8], the pKa in data set [2] fell in the range of 6 to 7.

For the compound `CC/C=C\CCCC/C=C\CCCCCCCC(=O)OC[C@H](COP(=O)(OC)OCCCCN(C)C)OC(=O)CCCCCCC/C=C\CCCC/C=C\CC` (stereo partly drawn) [Compound 22], the pKa in data set [2] is 6 to 7.

`CC(C)CCC[C@@H](C)[C@H]1CCC2[C@@H]3CC=C4CC(SSCCCN(C)C)CC[C@]4(C)[C@H]3CC[C@@]21C` (stereo partly drawn) [Compound 35] displayed a pKa in the data set “physchem” of 6 to 7.

As to `CCC/C=C\CCCC/C=C\CCCCCC1(CCCCC/C=C\CCCC/C=C\CCC)OCC(CCN(C)C)O1` (stereo not drawn) [Compound 5], the pKa in data set [2] lay in the range of 6 to 7.

Turning to `CCCCC/C=C\CCCC/C=C\CCCCCC1(CCCCC/C=C\CCCC/C=C\CCCCC)OCC(CCN(CC)CC)O1` (stereo not drawn) [Compound 6], in data set [2], the pKa lay in the range of 6 to 7.

With `CCC/C=C\CCCC/C=C\CCCCCC(CCCCC/C=C\CCCC/C=C\CCC)OC(=O)CCCN(CC)CC` [Compound 16], in data set [2], the pKa was 6 to 7.

As for `CCC/C=C\CCCC/C=C\CCCCC(=O)OC[C@H](COP(=O)(OC)OCCCN(C)C)OC(=O)CCCC/C=C\CCCC/C=C\CCC` (stereo partly drawn) [Compound 26], the pKa in data set [2] fell in the range of 6 to 7.

In the case of `CCC/C=C\CCCC/C=C\CCCCC(=O)OC[C@H](COP(=O)(OC)OCCCN(CC)CC)OC(=O)CCCC/C=C\CCCC/C=C\CCC` (stereo partly drawn) [Compound 27], the pKa in data set [2] was in the range of 6 to 7.

For the compound `CCC/C=C\CCCC/C=C\CCCCCC1(CCCCC/C=C\CCCC/C=C\CCC)OCC(CCN(CC)CC)O1` (stereo not drawn) [Compound 7], the pKa in data set [2] fell in the range of 6 to 7.

`CCCCC/C=C\C/C=C\CCCCCCCC(=O)OC[C@H](CCN(C)C)OC(=O)CCCCCCC/C=C\C/C=C\CCCCC` [Compound O-11769]: in data set [1], the “% of parent lipid peak at time 0, 24 h” value amounted to 31 ± 0.9%; the “% of parent lipid peak at time 0, 48 h” value was 1 ± 0.2%; the “% of parent lipid peak at time 0, 72 h” value is listed as 0.3 ± 0.1%; the “degradation” value is listed as “fully degraded”.

Regarding `CC/C=C\CCCC/C=C\CCCCCCCC(=O)OC[C@H](CCN(C)C)OC(=O)CCCCCCC/C=C\CCCC/C=C\CC` [Compound 17], the pKa in data set [2] was 6 to 7.

`CCCCC/C=C\CCCC/C=C\CCCCCC1(CCCCC/C=C\CCCC/C=C\CCCCC)OCC(CCN(C)C)O1` (stereo not drawn) [Compound 1]: the pKa in data set [2] was in the range of 6 to 7.

In the case of `CCC/C=C\CCCC/C=C\CCCCCC(CCCCC/C=C\CCCC/C=C\CCC)OC(=O)CCCN(C)C` [Compound 14], the pKa in data set [2] fell in the range of 6 to 7.

Regarding `CCCCC/C=C\C/C=C\CCCCCCCCC1(CCCCCCCC/C=C\C/C=C\CCCCC)OCC(CCN(C)C)O1` (stereo not drawn) [KC2, DLin-KC2-DMA], in data set [1], the “% of parent lipid peak at time 0, 24 h” value worked out at 35 ± 0.7%; the “% of parent lipid peak at time 0, 48 h” value is recorded as 6 ± 1.9%; the “% of parent lipid peak at time 0, 72 h” value turned out to be 0 ± 0.0%; the “degradation” value is “fully degraded”.

In the case of `CCCCC/C=C\CCCC/C=C\CCCCCC(CCCCC/C=C\CCCC/C=C\CCCCC)OC(=O)CCCN(CC)CC` [Compound 11], in data set [2], the pKa is 6 to 7.

For the compound `CCCCCCCC/C=C\CCSSCCCC(=O)OC[C@H](CCN(C)C)OC(=O)CCCSSCC/C=C\CCCCCCCC` [Compound 33], in data set [2], the pKa was 6 to 7.

`CCCCC/C=C\C/C=C\CCCCCCCCC1(CCCCCCCC/C=C\C/C=C\CCCCC)OCC(CCCN(C)C)O1` (stereo not drawn) [KC3, Dlin-KC3-DMA]: in data set [1], the “% of parent lipid peak at time 0, 24 h” value is recorded as 46 ± 1.8%; the “% of parent lipid peak at time 0, 48 h” value stood at 1 ± 0.2%; the “% of parent lipid peak at time 0, 72 h” value turned out to be 0 ± 0.0%; the “degradation” value is recorded as “fully degraded”.

Turning to `CC/C=C\CCCC/C=C\CCCCCCCC(=O)OC[C@H](COP(=O)(OC)OCCCN(C)C)OC(=O)CCCCCCC/C=C\CCCC/C=C\CC` (stereo partly drawn) [Compound 20], the pKa in data set [2] lay in the range of 6 to 7.

In the case of `CCCCC/C=C\CCCC/C=C\CCCCCC1(CCCCC/C=C\CCCC/C=C\CCCCC)OCC(CCCN(C)C)O1` (stereo not drawn) [Compound 3], in data set [2], the pKa was in the range of 6 to 7.

For `CCCCC/C=C\CCCC/C=C\CCCCCC(CCCCC/C=C\CCCC/C=C\CCCCC)OC(=O)CCCN(C)C` [Compound 9], the pKa in data set [2] lay within 6 to 7.

In the case of `CC/C=C\CCCC/C=C\CCCCCCCC(=O)OC[C@H](CCN(CC)CC)OC(=O)CCCCCCC/C=C\CCCC/C=C\CC` [Compound 19], in data set [2], the pKa was in the range of 6 to 7.

For the compound `CCCCC/C=C\CCCC/C=C\CCCCCC(CCCCC/C=C\CCCC/C=C\CCCCC)OC(=O)CCCCN(C)C` [Compound 12], the pKa in data set [2] lay within 6 to 7.

As to `CCCCCC/C=C\CCCCCCCCC(CCCCCCCC/C=C\CCCCCC)OC(=O)CCCN(C)C` [Compound 13], in data set [2], the pKa lay in the range of 6 to 7.

For `CC/C=C\CCCC/C=C\CCCCCCCCC(CCCCCCCC/C=C\CCCC/C=C\CC)OC(=O)CCCN(C)C` [Compound 10], the pKa in data set [2] was in the range of 6 to 7.

As for `CCCCC/C=C\CCCC/C=C\CCCCCC1(CCCCC/C=C\CCCC/C=C\CCCCC)OC[C@H](CCN(C)C)O1` [KC2-01, 2-((S)-2,2-di((6Z,12Z)-octadeca-6,12-dien-1-yl)-1,3-dioxolan-4-yl)-N,N-dimethylethan-1-amine], in data set [1], the “% of parent lipid peak at time 0, 24 h” value came to 91 ± 0.3%; the “% of parent lipid peak at time 0, 48 h” value worked out at 87 ± 0.9%; the “% of parent lipid peak at time 0, 72 h” value is given as 83 ± 0.3%.

In the case of `CCC/C=C\CCCC/C=C\CCCCC(=O)OC[C@H](COP(=O)(OC)OCCCCN(C)C)OC(=O)CCCC/C=C\CCCC/C=C\CCC` (stereo partly drawn) [Compound 28], in data set [2], the pKa lay in the range of 6 to 7.

The compound `CC(C)CCC[C@@H](C)[C@H]1CCC2[C@@H]3CC=C4CC(SSCCCCN(C)C)CC[C@]4(C)[C@H]3CC[C@@]21C` (stereo partly drawn) [Compound 36] showed a pKa in the data set “physchem” of 6 to 7.

`CCC/C=C\CCCC/C=C\CCCCCC(CCCCC/C=C\CCCC/C=C\CCC)OC(=O)CCCCN(C)C` [Compound 15]: in data set [2], the pKa is 6 to 7.

On to `CCCCCCCC/C=C\CCSSCCCCC1(CCCCSSCC/C=C\CCCCCCCC)OCC(CCN(C)C)O1` (stereo not drawn) [Compound 29], for which the pKa in data set [2] was in the range of 6 to 7.

Take `CCCCCC/C=C\CCCCCCCCC1(CCCCCCCC/C=C\CCCCCC)OCC(CCN(C)C)O1` (stereo not drawn) [Compound 4]: the pKa in data set [2] lay in the range of 6 to 7.

On to `CC/C=C\CCCC/C=C\CCCCCCCC(=O)OC[C@H](CCCN(C)C)OC(=O)CCCCCCC/C=C\CCCC/C=C\CC` [Compound 18], for which the pKa in data set [2] fell in the range of 6 to 7.

As to `CCC/C=C\CCCC/C=C\CCCCC(=O)OC[C@H](CCN(CC)CC)OC(=O)CCCC/C=C\CCCC/C=C\CCC` [Compound 24], the pKa in data set [2] is 6 to 7.

For `CC/C=C\CCCC/C=C\CCCCCCCC(=O)OC[C@H](COP(=O)(OC)OCCCN(CC)CC)OC(=O)CCCCCCC/C=C\CCCC/C=C\CC` (stereo partly drawn) [Compound 21], the pKa in data set [2] lay within 6 to 7.

For `CCCCCCCC/C=C\CCSSCCCCC(CCCCSSCC/C=C\CCCCCCCC)OC(=O)CCCN(C)C` [Compound 31], the pKa in data set [2] fell in the range of 6 to 7.

Regarding `CCCCCC/C=C\CCSSCCCCC(CCCCSSCC/C=C\CCCCCC)OC(=O)CCCN(C)C` [Compound 32], the pKa in data set [2] fell in the range of 6 to 7.

`CCCCCC/C=C\CCSSCCCC(=O)OC[C@H](CCN(C)C)OC(=O)CCCSSCC/C=C\CCCCCC` [Compound 34]: in data set [2], the pKa lay within 6 to 7.

As to `CC/C=C\CCCC/C=C\CCCCCCCCC1(CCCCCCCC/C=C\CCCC/C=C\CC)OCC(CCN(C)C)O1` (stereo not drawn) [Compound 2], the pKa in data set [2] lay within 6 to 7.

For orientation: pKa means the negative logarithm of the acid dissociation constant.
